We go through nine compounds from US20230114728A1 (Venatorx Pharmaceuticals, Inc., priority 2019, published 2023).

Molecules are shown by their SMILES. In brackets after ≈: the same amount, converted by molar mass.

Test [1] relates to P. aeruginosa (ΔmexAB-oprM). The test is described as follows: Broth microdilution MIC in iron-depleted CAMHB (IDM). It counts as cell-based. Conditions: Pseudomonas aeruginosa, read-out: Minimum Inhibitory Concentration, P. aeruginosa ΔmexAB-OprM. An outline of the steps:
(§1)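 Colonies grow 3-5 h in iron-depleted broth at 37° C, are adjusted by OD600 to give 2-8×10^5 CFU/mL, and are added to 2-fold serial compound dilutions. After 16-20 h (Pseudomonas) or 20-24 h (Acinetobacter) at 37° C, the lowest concentration with no visible growth is the MIC.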
On the technique in general: Dilution methods test growth across graded concentrations, often in twofold steps.

The test system of another test is P. aeruginosa ATCC 35151. The description is as above. It counts as cell-based. Conditions: Pseudomonas aeruginosa, ATCC35151; iron-depleted MHB (IDM); hyper-permeable strain; read-out: Minimum Inhibitory Concentration, P. aeruginosa ATCC 35151. The gist of the method: as §1
The test system of test [2] is P. aeruginosa CDC-0054 producing VIM-4, OXA-50, and PAO. The test is described as above. It counts as cell-based. Conditions: Pseudomonas aeruginosa, read-out: Minimum Inhibitory Concentration, P. aeruginosa CDC-0054. An outline of the steps:
as §1

The test system of test [3] is A. baumannii CDC-0045 producing TEM-1D, OXA-23, and OXA-69. Described as above. It counts as cell-based. The following applies: Acinetobacter baumannii, read-out: Minimum Inhibitory Concentration, CDC-0045.
The test system of a further test is P. aeruginosa CDC-0110. The test is described as above. It counts as cell-based. Conditions: Pseudomonas aeruginosa, CDC0110, read-out: Minimum Inhibitory Concentration, P. aeruginosa CDC-0110. The gist of the method:
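MIC is the lowest well showing no visible growth after 16-20 h at 37 °C, starting from 2-8×10^5 CFU/mL in 2-fold serial compound dilutions. Medium: cation-adjusted Mueller Hinton broth iron-depleted with Chelex 100, supplemented back with Ca, Mg and Zn, pH 7.3; CLSI protocol.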

In another test the target is A. baumannii PBP1a (Acinetobacter baumannii, UniProt A0ABX6CK30). The test is described as follows: Bocillin-FL fluorescence polarization competition binding assay, A. baumannii PBP1a. Conditions: fluorescence polarization competition binding assay using Bocillin-FL; column 1; read-out: A. baumannii PBP1a Potency. From the text:
Example I: Experimental Method for Penicillin-Binding Protein Binding Assays with Bocillin-FL Via Fluorescence Polarization
To determine the ability of boronic acid-based test PBP inhibitors to bind Penicillin Binding Proteins (PBPs), Bocillin-FL (fluorescently-labeled penicillin V; ThermoFisher Scientific) was used in a fluorescence polarization (FP) competition binding assay to assess inhibitor binding to PBP2, PBP3 or PBP4 from Escherichia coli (K12), PBP3 from Pseudomonas aeruginosa (PA01), PBP1a, PBP2 and PBP3 from Acinetobacter baumannii (ATCC 19606), and PBP2 from Neiserria gonorrheae (FA19). PBPs were cloned and purified as described previously (E. coli PBPs, King, D. T, et al., ACS Infectious Diseases 2015, 1, 175-184; P. aeruginosa PBP3, Han et. al., PNAS 2010, 107 (51), 22002-22007; A. baumannii PBPs, Penwell et. al., Antimicrob. Agents Chemother. 2015, 59 (3), 1680-1689; N. gonorrhoeae PBP2, Singh et. al., J Biol. Chem. 2019, 294 (38), 14020-14032). To establish assay conditions for competition binding, enzyme titration/saturation binding experiments were initially performed. Bocillin-FL was prepared at 0.2 μM in a buffer comprised of 50 mM Hepes (pH 8.0), 300 mM NaCl and 5% (v/v) glycerol for reactions with E. coli, P. aeruginosa and N. gonorrhoeae PBPs, and 25 mM Tris (pH 8.0), 200 mM NaCl and 10% (v/v) glycerol and 0.005% (v/v) Tween 20 for reactions with A. baumannii PBPs. Saturation binding was performed by mixing 40 μl of PBP solutions ranging in concentrations from 0-24 μM with 40 μl of the 0.2 μM Bocillin-FL solution, in individual wells of a black 384-well microplate. FP was measured immediately upon mixing (Excitation, 490 nm; Emission, 520 nm; g-factor, 0.96), using a Cytation3 (BioTek) microplate reader and measured continuously for up to 120 minutes. […] The competition binding assay (80 μl final volume) was validated using beta-lactams and PBPs at final concentrations of: 1.5 μM, E. coli PBP3; 0.75 μM, P. aeruginosa PBP3; 1 μM A. baumannii PBP1a; 2.5 μM A. baumannii PBP2; 0.2 μM A. baumannii PBP3; and […] N. gonorrhoeae PBP2. Bocillin-FL was at 0.1 μM (0.05 μM with A. baumannii PBP1a) and beta-lactam concentrations ranged from 0-1000 μM. […] Bocillin-FL was added and the FP immediately measured for up to 60 minutes (90 minutes for E. coli PBP2). […] The beta-lactam potency was reported as the concentration of beta-lactam required to reduce the amount of PBP bound-Bocillin-FL by 50% (EC50). […] Binding assays for boronic acid PBP inhibitors were performed in an identical fashion for the respective PBPs
(Polarisation of emitted light reports the rotation of a fluorescent probe.)

A. baumannii PBP1a, sequence (A0ABX6CK30 entry or part of it): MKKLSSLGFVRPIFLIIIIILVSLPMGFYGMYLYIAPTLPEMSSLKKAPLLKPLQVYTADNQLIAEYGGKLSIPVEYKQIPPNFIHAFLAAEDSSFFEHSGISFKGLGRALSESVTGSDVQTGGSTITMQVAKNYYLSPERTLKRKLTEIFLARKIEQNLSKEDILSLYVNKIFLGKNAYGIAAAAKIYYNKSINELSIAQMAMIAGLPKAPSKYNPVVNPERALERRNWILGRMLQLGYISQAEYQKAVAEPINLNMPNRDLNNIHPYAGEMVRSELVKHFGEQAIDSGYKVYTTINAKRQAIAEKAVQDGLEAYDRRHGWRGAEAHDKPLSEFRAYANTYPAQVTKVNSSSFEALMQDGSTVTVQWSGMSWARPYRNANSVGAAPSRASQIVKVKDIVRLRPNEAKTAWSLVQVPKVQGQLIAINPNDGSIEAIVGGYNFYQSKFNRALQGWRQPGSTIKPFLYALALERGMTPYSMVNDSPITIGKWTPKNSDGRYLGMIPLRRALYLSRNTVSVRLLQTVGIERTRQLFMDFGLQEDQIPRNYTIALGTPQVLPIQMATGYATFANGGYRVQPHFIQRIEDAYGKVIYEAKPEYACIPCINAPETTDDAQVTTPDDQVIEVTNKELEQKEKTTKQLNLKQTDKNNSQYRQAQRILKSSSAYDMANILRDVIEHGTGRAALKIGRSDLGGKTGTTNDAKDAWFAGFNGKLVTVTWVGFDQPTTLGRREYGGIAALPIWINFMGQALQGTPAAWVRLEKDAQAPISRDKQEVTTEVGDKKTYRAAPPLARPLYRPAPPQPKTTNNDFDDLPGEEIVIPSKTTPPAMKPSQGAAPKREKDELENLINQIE

Regarding `CCN1CCN(C(=O)N[C@H](C(=O)N[C@H]2Cc3ccc(F)c(C(=O)O)c3OB2O)c2c(F)cc(O)c(O)c2Cl)C(=O)C1=O` (single isomer, unassigned) [Example 125], the MIC (in test [1]; in the test with P. aeruginosa ATCC 35151; in test [2]; in test [3]; in the test with P. aeruginosa CDC-0110) was over 128 µg/mL in each case.
On to `NC1(CN2CCN(C(=O)N[C@@H](C(=O)N[C@H]3Cc4ccc(F)c(C(=O)O)c4OB3O)c3cc(F)c(O)c(O)c3Cl)C(=O)C2=O)CC1` (single isomer, unassigned) [Example 133], for which the MIC in test [1] is 0.25 µg/mL (≈ 0.384 µM); with P. aeruginosa ATCC 35151, 0.25 µg/mL (≈ 0.384 µM); in test [2] it was 0.5 to 1 µg/mL (≈ 0.767 to 1.53 µM); in test [3], 8 to 16 µg/mL (≈ 12.3 to 24.5 µM); with P. aeruginosa CDC-0110, 0.5 to 1 µg/mL (≈ 0.767 to 1.53 µM).
Regarding `NC1(CN2CCN(C(=O)N[C@@H](C(=O)N[C@H]3Cc4ccc(F)c(C(=O)O)c4OB3O)c3c(F)cc(O)c(O)c3Cl)C(=O)C2=O)CC1` (single isomer, unassigned) [Example 134], the EC50 on A. baumannii PBP1a was over 100 µM. Besides, the MIC in test [1] is 0.25 µg/mL (≈ 0.384 µM); with P. aeruginosa ATCC 35151, 0.25 µg/mL (≈ 0.384 µM); in test [2] it was 32 to 64 µg/mL (≈ 49.1 to 98.2 µM); in test [3], 32 to 64 µg/mL (≈ 49.1 to 98.2 µM); with P. aeruginosa CDC-0110, 2 to 4 µg/mL (≈ 3.07 to 6.14 µM).
As to `NCCN1CCN(C(=O)N[C@@H](C(=O)N[C@H]2Cc3ccc(F)c(C(=O)O)c3OB2O)c2cc(F)c(O)c(O)c2Cl)C(=O)C1=O` (single isomer, unassigned) [Example 179], the EC50 at A. baumannii PBP1a was over 100 µM. The MIC was 0.25 µg/mL (≈ 0.4 µM) in test [1]; 0.25 µg/mL (≈ 0.4 µM) in the test on P. aeruginosa ATCC 35151; 0.5 to 1 µg/mL (≈ 0.799 to 1.6 µM) in test [2]; 8 to 16 µg/mL (≈ 12.8 to 25.6 µM) in test [3]; 0.5 to 1 µg/mL (≈ 0.799 to 1.6 µM) in the test on P. aeruginosa CDC-0110.
For `NCCCN1CCN(C(=O)N[C@@H](C(=O)N[C@H]2Cc3ccc(F)c(C(=O)O)c3OB2O)c2cc(F)c(O)c(O)c2Cl)C(=O)C1=O` (single isomer, unassigned) [Example 180], the EC50 on A. baumannii PBP1a is over 100 µM. For the same compound, the MIC in test [1] was 0.25 µg/mL (≈ 0.391 µM); in the test on P. aeruginosa ATCC 35151 it was 0.25 µg/mL (≈ 0.391 µM); in test [2], 0.5 to 1 µg/mL (≈ 0.782 to 1.56 µM); in test [3], 2 to 4 µg/mL (≈ 3.13 to 6.25 µM); in the test on P. aeruginosa CDC-0110, 0.25 µg/mL (≈ 0.391 µM).
For the compound `C[C@@H](O)[C@@H](NC(=O)N1CCN(CCNC(=O)c2c(F)cc(O)c(O)c2Cl)C(=O)C1=O)C(=O)N[C@H]1Cc2ccc(F)c(C(=O)O)c2OB1O` [Example 102, (R)-3-((2R,3R)-2-(4-(2-(2-chloro-6-fluoro-3,4-dihydroxybenzamido)ethyl)-2,3-dioxopiperazine-1-carboxamido)-3-hydroxybutanamido)-7-fluoro-2-hydroxy-3,4-dihydro-2H-benzo[e][1,2]oxaborinine-8-carboxylic acid], the EC50 at A. baumannii PBP1a is over 100 µM. Also, the MIC in test [1] was 0.5 to 1 µg/mL (≈ 0.717 to 1.43 µM); in the test on P. aeruginosa ATCC 35151, 0.5 to 1 µg/mL (≈ 0.717 to 1.43 µM); in test [2] it was 32 to 64 µg/mL (≈ 45.9 to 91.7 µM); in test [3] it was 32 to 64 µg/mL (≈ 45.9 to 91.7 µM); with P. aeruginosa CDC-0110, 0.5 to 1 µg/mL (≈ 0.717 to 1.43 µM).
For `NS(=O)(=O)Nc1cccc(C(NC(=O)N2CCN(Cc3c(F)cc(O)c(O)c3Cl)C(=O)C2=O)C(=O)N[C@H]2Cc3cccc(C(=O)O)c3OB2O)c1` (stereo partly drawn) [Example 131, (3R)-3-(2-(4-(2-chloro-6-fluoro-3,4-dihydroxybenzyl)-2,3-dioxopiperazine-1-carboxamido)-2-(3-(sulfamoylamino)phenyl)acetamido)-2-hydroxy-3,4-dihydro-2H-benzo[e][1,2]oxaborinine-8-carboxylic acid], the EC50 on A. baumannii PBP1a was in the range of 30 to 100 µM. Also, the MIC in test [1] was 0.25 µg/mL (≈ 0.334 µM); in the test on P. aeruginosa ATCC 35151 it was 0.25 µg/mL (≈ 0.334 µM); in test [2], over 128 µg/mL; in test [3] it was over 128 µg/mL; in the test with P. aeruginosa CDC-0110 it was 2 to 4 µg/mL (≈ 2.67 to 5.34 µM).
As to `NS(=O)(=O)c1cc(O)cc(C(NC(=O)N2CCN(Cc3c(F)cc(O)c(O)c3Cl)C(=O)C2=O)C(=O)N[C@H]2Cc3cccc(C(=O)O)c3OB2O)c1` (stereo partly drawn) [Example 132, (3R)-3-(2-(4-(2-chloro-6-fluoro-3,4-dihydroxybenzyl)-2,3-dioxopiperazine-1-carboxamido)-2-(3-hydroxy-5-sulfamoylphenyl)acetamido)-2-hydroxy-3,4-dihydro-2H-benzo[e][1,2]oxaborinine-8-carboxylic acid], at A. baumannii PBP1a, the EC50 was 30 to 100 µM. For the same compound, the MIC was 0.25 µg/mL (≈ 0.333 µM) in test [1]; 0.5 to 1 µg/mL (≈ 0.667 to 1.33 µM) with P. aeruginosa ATCC 35151; over 128 µg/mL in test [2]; over 128 µg/mL in test [3]; 2 to 4 µg/mL (≈ 2.67 to 5.33 µM) in the test with P. aeruginosa CDC-0110.
`CCN1CCN(C(=O)NC(C(=O)N[C@H]2Cc3cccc(C(=O)O)c3OB2O)c2c(F)cc(N)cc2F)C(=O)C1=O` (stereo partly drawn) [Example 181, (3R)-3-(2-(4-amino-2,6-difluorophenyl)-2-(4-ethyl-2,3-dioxopiperazine-1-carboxamido)acetamido)-2-hydroxy-3,4-dihydro-2H-benzo[e][1,2]oxaborinine-8-carboxylic acid]: the EC50 at A. baumannii PBP1a is over 100 µM.
